Values after ≈ are worked out from the molar mass of the structure shown. Like-named read-outs stand apart in the source and are kept apart here.
Tests used:
[1] = tested on: ESBL-producing Enterobacterales; test: organism not typed; assay type: cell-based; details: ESBL (N = 521); xeruborbactam and vaborbactam fixed 8 mg/L, all other BLIs 4 mg/L
[2] = tested on: carbapenem-resistant Enterobacterales (subset of 507 isolates); test: organism not typed; assay type: cell-based; details: xeruborbactam and vaborbactam fixed 8 mg/L, all other BLIs 4 mg/L
[3] = tested on: ESBL-producing and carbapenem-resistant Enterobacterales (All, N = 1028); test: organism not typed; assay type: cell-based; details: All (N = 1028); xeruborbactam and vaborbactam fixed 8 mg/L, all other BLIs 4 mg/L
[4] = tested on: Escherichia coli NCTC 13353 (ECM7514), CTX-M-15; test: MIC, reference strain; assay type: cell-based; details: Escherichia coli, NCTC13353
Method: (§1) Other BL/BLI combinations were tested at their recommended BLI concentrations. MIC values for the partner antibiotics and BLIs alone were also determined (Table 2; Table S1). All investigational and marketed BLIs enhanced the potency of antibiotics according to their spectrum of inhibition. MIC values against CLSI-approved QC strains were within acceptable ranges for drugs and combinations tested (Table 3).
(§2) Isolates were tested for antimicrobial susceptibility using the broth microdilution methodology per CLSI M07 (2018) guidelines ([40]). JMI Laboratories produced frozen-form 96-well panels with cation-adjusted Mueller-Hinton broth as the testing medium. Current CLSI quality assurance practices were followed when performing the susceptibility tests. MIC values were validated by concurrently testing the following CLSI-recommended ([27]) QC reference strains: E. coli NCTC 13353 (CTX-M-15), Klebsiella pneumoniae ATCC BAA-2814 (KPC-3), Klebsiella pneumoniae ATCC BAA-1705 (KPC-2), and K. pneumoniae ATCC 700603 (SHV-18). The inoculum density during susceptibility testing was monitored by bacterial colony counts. Where applicable, QC ranges for tested reference strains were those approved or published by the CLSI ([27]). Meropenem was purchased from Carbosynth; ceftolozane was synthesized at Acme Bioscience, Palo Alto, CA, USA; all other antibiotics were from Sigma Aldrich. Xeruborbactam was synthesized at Qpex Biopharma, San Diego, CA, USA. Avibactam was purchased from eNovation, Chemicals LLC, Bridgewater, NJ, USA. Vaborbactam was synthesized at The Medicines Company, San Diego, CA. Relebactam, taniborbactam, and relebactam were synthesized at Acme Bioscience.

[5] = tested on: E. coli CDC 0069 (EC1106), NDM-1; test: MIC, reference strain; assay type: cell-based; details: Escherichia coli, BLI at the fixed concentration in brackets, read-out: MIC
Method: as §1
as §2, with “([27]).” for “([27]). Meropenem was purchased from Carbosynth; ceftolozane was synthesized at Acme Bioscience, Palo Alto, CA, USA; all other antibiotics were from Sigma Aldrich. Xeruborbactam was synthesized at Qpex Biopharma, San Diego, CA, USA. Avibactam was purchased from eNovation, Chemicals LLC, Bridgewater, NJ, USA. Vaborbactam was synthesized at The Medicines Company, San Diego, CA. Relebactam, taniborbactam, and relebactam were synthesized at Acme Bioscience.”

[6] = tested on: K. pneumoniae ATCC BAA-1705 (KPM1123), KPC-2; test: MIC, reference strain; assay type: cell-based; details: Klebsiella pneumoniae, ATCCBAA1705; KPC-2; BLI at the fixed concentration in brackets; read-out: MIC
Method: as §1
as §2, with “([27]).” for “([27]). Meropenem was purchased from Carbosynth; ceftolozane was synthesized at Acme Bioscience, Palo Alto, CA, USA; all other antibiotics were from Sigma Aldrich. Xeruborbactam was synthesized at Qpex Biopharma, San Diego, CA, USA. Avibactam was purchased from eNovation, Chemicals LLC, Bridgewater, NJ, USA. Vaborbactam was synthesized at The Medicines Company, San Diego, CA. Relebactam, taniborbactam, and relebactam were synthesized at Acme Bioscience.”

[7] = tested on: K. pneumoniae ATCC BAA-2814 (KP1074), KPC-3; test: MIC, reference strain; assay type: cell-based; details: Klebsiella pneumoniae, ATCCBAA2814; KPC-3; BLI at the fixed concentration in brackets; read-out: MIC
Method: as §1
as §2, with “([27]).” for “([27]). Meropenem was purchased from Carbosynth; ceftolozane was synthesized at Acme Bioscience, Palo Alto, CA, USA; all other antibiotics were from Sigma Aldrich. Xeruborbactam was synthesized at Qpex Biopharma, San Diego, CA, USA. Avibactam was purchased from eNovation, Chemicals LLC, Bridgewater, NJ, USA. Vaborbactam was synthesized at The Medicines Company, San Diego, CA. Relebactam, taniborbactam, and relebactam were synthesized at Acme Bioscience.”

[8] = tested on: K. pneumoniae CDC 0135 (KP1291), VIM-1; test: MIC, reference strain; assay type: cell-based; details: Klebsiella pneumoniae, BLI at the fixed concentration in brackets, read-out: MIC
Method: as §1
as §2, with “([27]).” for “([27]). Meropenem was purchased from Carbosynth; ceftolozane was synthesized at Acme Bioscience, Palo Alto, CA, USA; all other antibiotics were from Sigma Aldrich. Xeruborbactam was synthesized at Qpex Biopharma, San Diego, CA, USA. Avibactam was purchased from eNovation, Chemicals LLC, Bridgewater, NJ, USA. Vaborbactam was synthesized at The Medicines Company, San Diego, CA. Relebactam, taniborbactam, and relebactam were synthesized at Acme Bioscience.”

[9] = tested on: Klebsiella pneumoniae ATCC 700603 (KPM2881), SHV-18; test: MIC, reference strain; assay type: cell-based; details: Klebsiella pneumoniae, ATCC700603; SHV-18; BLI at the fixed concentration in brackets; read-out: MIC
Method: as §1
as §2, with “([27]).” for “([27]). Meropenem was purchased from Carbosynth; ceftolozane was synthesized at Acme Bioscience, Palo Alto, CA, USA; all other antibiotics were from Sigma Aldrich. Xeruborbactam was synthesized at Qpex Biopharma, San Diego, CA, USA. Avibactam was purchased from eNovation, Chemicals LLC, Bridgewater, NJ, USA. Vaborbactam was synthesized at The Medicines Company, San Diego, CA. Relebactam, taniborbactam, and relebactam were synthesized at Acme Bioscience.”

[10] = tested on: P. aeruginosa BAA-3197 (PA5257), KPC-2; test: MIC, reference strain; assay type: cell-based; details: Pseudomonas aeruginosa, BAA3197; KPC-2; BLI at the fixed concentration in brackets; read-out: MIC
CTX-M-14 = CTX-M-14 (Escherichia coli, UniProt Q9L5C7); test: Ki app of β-lactamase inhibition, purified enzyme; assay type: biochemical; details: 10-minute preincubation; nitrocefin substrate
Method: (§3) The majority of purified β-lactamase enzymes used in the study were either expressed and purified internally ([35]) or obtained from Emerald Biostructures (Bainbridge Island, WA, USA). L1 enzyme was purified as described in reference ([36]).
(§4) Enzymes were mixed with BLIs at concentrations varying from 160 to 0.0027 µM in 50-mM Na-phosphate pH7.0, 0.1-mg/mL bovide serum albumin (BSA) (buffer A; 20-µM ZnCl2 was also added for all metalloenzymes) and incubated for 10 minutes at 37°C. Nitrocefin (50 µM) (10 µM for SHV-12) or 100 µM of imipenem (prewarmed at 37°C for 10 minutes) was added, and substrate cleavage profiles were recorded at 37°C at 490 nm every 10 seconds for 10 minutes or at 294 nm every 30 seconds for 1 hour for nitrocefin and imipenem, respectively. […] Ki app values (Ki for metalloenzymes) were calculated by the method of Waley ([37]).

CTX-M-15 = CTX-M-15 (Escherichia coli, UniProt Q9EXV5); test: Ki app of β-lactamase inhibition, purified enzyme; assay type: biochemical; details: 10-minute preincubation; nitrocefin substrate
Method: as §3, §4

P99 = P99 (Enterobacter cloacae, UniProt P05364); test: Ki app of β-lactamase inhibition, purified enzyme; assay type: biochemical; details: 10-minute preincubation; nitrocefin substrate; read-out: Ki app
Method: as §3, §4

SHV-12 = SHV-12 (Klebsiella pneumoniae, UniProt P0AD64, E235K/G234S/L31Q); test: Ki app of β-lactamase inhibition, purified enzyme; assay type: biochemical
Method: as §3, §4

IMP-1 = IMP-1 (Serratia marcescens, UniProt P52699); test: Ki of metallo-β-lactamase inhibition, purified enzyme; assay type: biochemical
Method: as §3, §4

VIM-1 = VIM-1 (Pseudomonas aeruginosa, UniProt A0A0F7KYQ8); test: as above; assay type: biochemical; details: 10-minute preincubation; nitrocefin substrate
Method: as §3, §4

NDM-1 = NDM-1 (Klebsiella pneumoniae, UniProt C7C422); test: biochemical
Method: as §3, §4

[11] = CTX-M-15, BLI at the fixed concentration in brackets, read-out: MIC

Chain of SHV-12 (P0AD64 22-286 L31Q/G234S/E235K): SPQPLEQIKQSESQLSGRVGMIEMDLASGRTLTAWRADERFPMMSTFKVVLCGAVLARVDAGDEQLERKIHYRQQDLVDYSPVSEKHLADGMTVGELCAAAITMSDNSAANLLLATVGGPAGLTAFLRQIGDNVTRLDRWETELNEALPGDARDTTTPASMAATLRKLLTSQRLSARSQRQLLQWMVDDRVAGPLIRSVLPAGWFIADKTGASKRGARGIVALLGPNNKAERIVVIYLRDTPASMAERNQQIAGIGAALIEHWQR
Chain of IMP-1 (P52699 19-246 limits assumed): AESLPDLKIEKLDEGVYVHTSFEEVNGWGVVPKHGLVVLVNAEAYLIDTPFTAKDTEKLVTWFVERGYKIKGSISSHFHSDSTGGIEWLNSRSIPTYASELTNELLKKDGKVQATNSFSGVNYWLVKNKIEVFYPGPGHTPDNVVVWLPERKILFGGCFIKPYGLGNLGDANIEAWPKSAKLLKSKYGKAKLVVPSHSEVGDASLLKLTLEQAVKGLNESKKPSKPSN
Chain of CTX-M-14 (Q9L5C7 entry or part of it): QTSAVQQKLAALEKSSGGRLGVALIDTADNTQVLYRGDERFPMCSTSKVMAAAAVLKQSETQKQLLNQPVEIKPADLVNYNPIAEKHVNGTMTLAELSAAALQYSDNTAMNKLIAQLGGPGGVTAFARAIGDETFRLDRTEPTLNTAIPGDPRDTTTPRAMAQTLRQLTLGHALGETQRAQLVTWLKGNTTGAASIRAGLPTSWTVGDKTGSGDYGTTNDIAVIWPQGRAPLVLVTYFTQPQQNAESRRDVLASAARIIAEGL
Chain of P99 (P05364 21-381): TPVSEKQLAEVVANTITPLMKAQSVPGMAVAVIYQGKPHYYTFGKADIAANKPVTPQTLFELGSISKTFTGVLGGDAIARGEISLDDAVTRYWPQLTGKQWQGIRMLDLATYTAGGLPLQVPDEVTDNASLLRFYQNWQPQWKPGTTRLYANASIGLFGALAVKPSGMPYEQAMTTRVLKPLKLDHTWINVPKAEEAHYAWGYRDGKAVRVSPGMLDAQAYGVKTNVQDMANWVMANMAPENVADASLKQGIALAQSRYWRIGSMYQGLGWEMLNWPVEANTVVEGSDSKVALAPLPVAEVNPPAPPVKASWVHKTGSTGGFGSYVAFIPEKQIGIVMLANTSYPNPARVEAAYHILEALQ
Chain of NDM-1 (C7C422 29-270 limits assumed): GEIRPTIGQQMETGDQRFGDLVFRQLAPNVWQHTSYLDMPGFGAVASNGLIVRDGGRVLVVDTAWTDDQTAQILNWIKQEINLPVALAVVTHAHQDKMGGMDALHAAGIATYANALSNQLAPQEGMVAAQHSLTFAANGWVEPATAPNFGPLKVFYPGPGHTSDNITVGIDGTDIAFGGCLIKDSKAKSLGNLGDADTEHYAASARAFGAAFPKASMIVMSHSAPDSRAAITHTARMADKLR
Chain of CTX-M-15 (Q9EXV5 entry or part of it): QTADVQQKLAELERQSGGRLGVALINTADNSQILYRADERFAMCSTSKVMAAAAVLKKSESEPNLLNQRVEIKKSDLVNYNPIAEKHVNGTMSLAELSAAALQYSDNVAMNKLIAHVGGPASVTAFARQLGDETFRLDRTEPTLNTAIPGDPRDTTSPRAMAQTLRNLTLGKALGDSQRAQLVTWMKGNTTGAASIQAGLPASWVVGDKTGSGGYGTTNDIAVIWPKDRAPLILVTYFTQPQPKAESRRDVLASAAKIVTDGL

## C[C@@H](O)[C@H]1C(=O)N2C(C(=O)O)=C(S[C@@H]3CN[C@H](C(=O)Nc4cccc(C(=O)O)c4)C3)[C@H](C)[C@H]12 [ETP]
[1]
  MIC50: 0.06 µg/mL
  MIC90: 0.5 µg/mL
[2]; CRE (N = 507)
  MIC50: >32 µg/mL
  MIC90: >32 µg/mL
[2]; KPC (N = 193)
  MIC50: >32 µg/mL
  MIC90: >32 µg/mL
[2]; MBL (N = 168)
  MIC50: >32 µg/mL
  MIC90: >32 µg/mL
[2]; Non-CP CRE (N = 50)
  MIC50: >32 µg/mL
  MIC90: >32 µg/mL
[2]; OXA-48-like (N = 96)
  MIC50: >32 µg/mL
  MIC90: >32 µg/mL
[3]
  MIC50: 4 µg/mL
  MIC90: >32 µg/mL

## C[C@@H](O)[C@H]1C(=O)N2C(C(=O)O)=C(SCCN=CN)C[C@H]12 [IMP, imipenem]
[4]
  MIC: 0.125 µg/mL
[5]
  MIC: 16 µg/mL
[6]
  MIC: 8 µg/mL
[7]
  MIC: 64 µg/mL
[8]
  MIC: 8 µg/mL
[9]
  MIC: 0.06 µg/mL
[10]
  MIC: > 64 µg/mL

## O=C(NC1CCNCC1)[C@@H]1CC[C@@H]2CN1C(=O)N2OS(=O)(=O)O [Relebactam, relebactam]
CTX-M-14
  Ki: 10 ± 3 nM
CTX-M-15
  Ki: 24 ± 1 nM
P99
  Ki: 14 ± 2 nM
SHV-12
  Ki: 36 ± 6 nM
IMP-1
  Ki: > 160000 nM
VIM-1
  Ki: > 160000 nM
NDM-1
  Ki: > 160000 nM
[4]; [11]
  MIC: > 64 µg/mL
[5]
  MIC: > 64 µg/mL
[6]
  MIC: > 64 µg/mL
[7]
  MIC: > 64 µg/mL
[8]
  MIC: > 64 µg/mL
[9]
  MIC: > 64 µg/mL
[10]
  MIC: > 64 µg/mL

## Cn1c(N)c(NC(=O)NCCN)c[n+]1CC1=C(C(=O)O)N2C(=O)[C@@H](NC(=O)/C(=N\OC(C)(C)C(=O)[O-])c3nsc(N)n3)[C@H]2SC1 [TOL, ceftolozane]
[4]; [11]
  MIC: > 64 µg/mL
[5]
  MIC: > 64 µg/mL
[6]
  MIC: 64 µg/mL
[7]
  MIC: > 64 µg/mL
[8]
  MIC: > 64 µg/mL
[9]
  MIC: 8 µg/mL
[10]
  MIC: 32 µg/mL (≈ 48 µM)

## O=C(O)C[C@@H]1CC[C@H](NC(=O)Cc2cccs2)B(O)O1 [Vaborbactam, vaborbactam]
SHV-12; 10-minute preincubation, nitrocefin substrate, read-out: Ki app
  Ki: 21 ± 4 nM
IMP-1
  Ki: > 160000 nM
[4]; [11]
  MIC: > 64 µg/mL
[5]
  MIC: > 64 µg/mL
[6]
  MIC: > 64 µg/mL
[7]
  MIC: > 64 µg/mL
[8]
  MIC: > 64 µg/mL
[9]
  MIC: > 64 µg/mL
[10]
  MIC: > 64 µg/mL
